Key:
SF3B1^WT = SF3B1^WT (Homo sapiens, UniProt O75533+Q7RTV0); test: Competitive binding assay (SPA, 3H-probe molecule) with Flag-tag SF3B1 from 293F cells; set-up: expressed in transfected cells; host or cells: 293F cells (Life Technologies), transient transfection with pFLAG-CMV-2-SF3B1; conditions: one nM 3H-probe; Flag-tag SF3B1^WT from transfected 293F cells; read-out: IC50, competitive inhibition of binding of the 3H-probe molecule
Protocol: The ability of E7107 to bind both SF3B1^WT and SF3B1^K700E proteins was evaluated in a competitive binding assay using Flag-tag SF3B1 proteins immunoprecipitated with anti-Flag antibody from transiently transfected 293F cells. Batch immobilization of antibody to beads was prepared by incubating 80 μg of anti-SF3B1 antibody (MBL International) and 24 mg anti-mouse PVT SPA scintillation beads (PerkinElmer) for 30 minutes. After centrifugation, the antibody-bead mixture was resuspended in PBS supplemented with PhosSTOP phosphatase inhibitor cocktail (Roche) and complete ULTRA protease inhibitor cocktail (Roche). Nuclear extracts were prepared by diluting 40 mg into a total volume of 16 mL PBS with phosphatase and protease inhibitors, and the mixture was centrifuged. The supernatant was transferred into a clean tube, and the antibody-bead mixture was added and incubated for two hours. The beads were collected by centrifuging, washed twice with PBS+0.1% Triton X-100, and resuspended with 4.8 mL of PBS. 100 μL binding reactions were prepared using slurry and varying concentrations of E7107. […] The mixture was incubated at room temperature for 15 minutes, and luminescence signals were read using a MicroBeta2 Plate Counter (PerkinElmer).

[1] = system: SF3B1^WT CLL patient samples; test: Splicing inhibition in CLL patient samples in vitro by RNA-Seq; type: cell-based, human; conditions: 10 nM, 6 hours
Protocol: (§1) The ability of E7107 to inhibit splicing in CLL patient samples in vitro was determined by isolating RNA from samples of E7107-treated patient cells treated for 6 hours with E7107 at 10 nM and performing RNA-Seq analysis. To do so, cells were washed with PBS after treatment with E7107, and RNA was isolated using PureLink (Life Technology) as reported in the manufacturer's manual. cDNA library preparation, sequencing and raw read filtering was performed as described in Ren, S. et al. “RNA-Seq analysis of prostate cancer in the Chinese population identifies recurrent gene fusions, cancer-associated long noncoding RNAs and aberrant alternative splicings.” Cell Res 22, 806-821, doi:10.1038/cr.2012.30 (2012).

[2] = system: neomorphic SF3B1^MUT CLL patient samples; test: as above; type: cell-based, human; conditions: 10 nM, 6 hours
Protocol: as §1

[3] = system: Nalm-6 SF3B1^K700E xenograft; test: Antitumor activity in subcutaneous Nalm-6 SF3B1^K700E xenograft model; type: in vivo, CB17-SCID mice
Protocol: SF3B1 modulator E7107 was tested for antitumor activity in vivo by determining the effect of E7107 in a subcutaneous model of Nalm-6 SF3B1^K700E. […] After this dosing, the animals were monitored until they reached either of the following endpoints: 1) excessive tumor volume measured three times a week (tumor volume calculated by using the ellipsoid formula: […]), or 2) development of any health problem such as paralysis or excessive body weight loss. Partial regression (PR) and complete regression (CR) are defined as 3 consecutive tumor measurements <50% and <30% of starting volume respectively.

Sequence of SF3B1^WT (Q15393 whole entry): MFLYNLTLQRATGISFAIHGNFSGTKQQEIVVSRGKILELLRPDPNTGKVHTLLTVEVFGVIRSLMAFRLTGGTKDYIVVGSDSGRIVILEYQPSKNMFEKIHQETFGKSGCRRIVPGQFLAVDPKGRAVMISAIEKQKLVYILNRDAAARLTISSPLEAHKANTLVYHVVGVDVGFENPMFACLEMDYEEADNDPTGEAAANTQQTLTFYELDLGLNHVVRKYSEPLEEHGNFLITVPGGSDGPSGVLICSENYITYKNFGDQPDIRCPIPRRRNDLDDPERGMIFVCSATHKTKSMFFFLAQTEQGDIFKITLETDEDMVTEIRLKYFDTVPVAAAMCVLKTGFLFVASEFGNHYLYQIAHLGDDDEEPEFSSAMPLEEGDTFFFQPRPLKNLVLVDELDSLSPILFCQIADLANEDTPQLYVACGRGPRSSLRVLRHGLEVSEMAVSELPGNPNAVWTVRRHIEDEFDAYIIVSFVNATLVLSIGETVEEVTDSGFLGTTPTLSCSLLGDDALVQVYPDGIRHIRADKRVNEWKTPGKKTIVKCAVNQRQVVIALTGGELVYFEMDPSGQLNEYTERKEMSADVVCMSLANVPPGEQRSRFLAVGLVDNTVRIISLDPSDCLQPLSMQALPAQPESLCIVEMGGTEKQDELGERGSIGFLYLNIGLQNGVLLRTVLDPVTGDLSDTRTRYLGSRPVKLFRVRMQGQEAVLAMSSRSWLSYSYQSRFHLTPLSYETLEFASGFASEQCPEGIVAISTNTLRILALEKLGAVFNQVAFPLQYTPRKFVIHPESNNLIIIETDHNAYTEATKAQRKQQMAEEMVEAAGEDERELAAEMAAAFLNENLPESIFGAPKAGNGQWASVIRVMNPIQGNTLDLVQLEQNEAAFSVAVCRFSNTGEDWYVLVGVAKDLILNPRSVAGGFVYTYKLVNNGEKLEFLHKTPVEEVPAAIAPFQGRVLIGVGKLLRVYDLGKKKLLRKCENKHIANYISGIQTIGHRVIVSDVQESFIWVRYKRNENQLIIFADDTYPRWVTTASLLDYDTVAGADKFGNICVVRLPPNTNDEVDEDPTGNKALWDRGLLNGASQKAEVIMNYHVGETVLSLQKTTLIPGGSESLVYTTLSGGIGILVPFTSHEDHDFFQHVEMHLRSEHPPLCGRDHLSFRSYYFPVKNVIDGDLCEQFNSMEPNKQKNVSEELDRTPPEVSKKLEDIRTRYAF
Sequence of SF3B1^WT (Q9BWJ5 whole entry, further chain): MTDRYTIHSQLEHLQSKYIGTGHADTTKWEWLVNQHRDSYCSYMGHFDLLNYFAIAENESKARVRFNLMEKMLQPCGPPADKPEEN
Sequence of SF3B1^WT (Q7RTV0 whole entry): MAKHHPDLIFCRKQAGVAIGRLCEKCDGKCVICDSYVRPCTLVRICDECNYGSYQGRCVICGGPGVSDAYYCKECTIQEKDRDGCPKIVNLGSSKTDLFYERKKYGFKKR
Sequence of SF3B1^WT (O75533 whole entry): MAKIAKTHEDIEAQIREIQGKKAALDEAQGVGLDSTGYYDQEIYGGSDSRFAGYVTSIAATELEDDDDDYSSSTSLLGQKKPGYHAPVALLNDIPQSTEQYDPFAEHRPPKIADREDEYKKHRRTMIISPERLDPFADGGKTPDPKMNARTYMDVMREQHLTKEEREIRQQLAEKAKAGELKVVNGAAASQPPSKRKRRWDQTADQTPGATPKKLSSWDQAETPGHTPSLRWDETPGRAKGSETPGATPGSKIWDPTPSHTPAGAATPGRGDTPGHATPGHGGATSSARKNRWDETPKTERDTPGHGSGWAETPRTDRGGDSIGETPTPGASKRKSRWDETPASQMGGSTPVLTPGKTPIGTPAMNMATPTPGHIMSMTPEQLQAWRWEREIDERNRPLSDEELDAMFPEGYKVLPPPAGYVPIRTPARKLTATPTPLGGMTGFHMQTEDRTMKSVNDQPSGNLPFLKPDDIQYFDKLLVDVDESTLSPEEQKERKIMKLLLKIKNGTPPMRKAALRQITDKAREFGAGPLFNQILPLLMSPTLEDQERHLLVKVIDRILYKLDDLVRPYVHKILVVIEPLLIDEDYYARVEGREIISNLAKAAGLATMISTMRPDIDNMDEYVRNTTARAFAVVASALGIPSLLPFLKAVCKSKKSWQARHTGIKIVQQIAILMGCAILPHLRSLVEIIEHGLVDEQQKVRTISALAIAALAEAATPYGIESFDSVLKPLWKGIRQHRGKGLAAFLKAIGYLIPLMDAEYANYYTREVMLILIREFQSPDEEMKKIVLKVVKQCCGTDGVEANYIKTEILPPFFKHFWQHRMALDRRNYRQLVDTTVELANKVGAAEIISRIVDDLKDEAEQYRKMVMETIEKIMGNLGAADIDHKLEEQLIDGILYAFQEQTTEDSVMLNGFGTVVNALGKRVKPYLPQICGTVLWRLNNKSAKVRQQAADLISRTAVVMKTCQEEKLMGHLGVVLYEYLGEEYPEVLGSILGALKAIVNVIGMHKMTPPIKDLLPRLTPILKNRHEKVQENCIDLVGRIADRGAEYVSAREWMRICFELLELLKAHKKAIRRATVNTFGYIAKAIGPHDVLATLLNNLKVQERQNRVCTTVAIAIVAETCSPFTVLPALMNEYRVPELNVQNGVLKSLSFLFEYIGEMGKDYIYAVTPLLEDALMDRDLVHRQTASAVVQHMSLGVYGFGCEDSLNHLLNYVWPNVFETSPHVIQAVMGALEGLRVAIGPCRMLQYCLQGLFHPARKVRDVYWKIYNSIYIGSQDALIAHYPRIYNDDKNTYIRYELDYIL

## CC[C@H](O)[C@@H](C)[C@H]1O[C@@H]1C[C@@](C)(O)/C=C/C=C(\C)[C@H]1OC(=O)C[C@H](O)CC[C@@](C)(O)[C@@H](OC(=O)N2CCN(C3CCCCCC3)CC2)/C=C/[C@@H]1C [Compound E7107]
SF3B1^WT
  IC50: 13 nM
[1]
  expression of canonical splice isoforms: inhibited the expression of canonical splice isoforms
[2]
  expression of canonical splice isoforms: inhibited the expression of canonical splice isoforms
[2]; all samples carrying neomorphic SF3B1 mutations
  aberrant splicing: able to modulate aberrant splicing
[3]; 1.25 mg/kg IV QDx5, n=10
  complete regression (CR): all animals (n=10) reached complete regression (CR)
[3]; 2.5 mg/kg IV QDx5, by day 9
  complete regressions (CRs), animals: 10/10
[3]; 5 mg/kg IV QDx5
  complete regression (CR): all Nalm-6 SF3B1^K700E xenograft animals reached CR as early as 9 days post treatment
  mean survival time: over 250 days
[3]; 1.25, 2.5 and 5 mg/kg IV QDx5
  tolerability of dose levels: well tolerated

— patent US11761045B2, “Splice variants associated with neomorphic SF3B1 mutants” (Eisai R&D Management Co., Ltd., priority 2015, dated 2023)
